Assay results published in US9879303B2, “Chromogenic glucuronidase substrates and uses” (Glycosynth Limited, priority 2013, dated 2018).
Counter-ions that a name gives are not always drawn.

What was measured:
Type in all cases: cell-based
E. cloacae = assay: screen of strains on agar plates (CPS ID 3 or Columbia agar); design: key: Red, Green, Black or Purple mean strong colour; Red, Green, Black or Purple mean strong colour; Red, Green, Black or Purple mean strong colour; Red, Green, Black or Purple mean strong colour; +/− means less colour than strong; Tr means a trace of colour, less than +/−; — means no colour
E. faecalis NCTC 775 [1] = assay: as above; design: key: Red, Green, Black or Purple mean strong colour; Red, Green, Black or Purple mean strong colour; Red, Green, Black or Purple mean strong colour; Red, Green, Black or Purple mean strong colour; +/− means less colour than strong; Tr means a trace of colour, less than +/−; — means no colour; conditions: 37° C. 18 hours
E. faecium NCTC 7171 = assay: screen of strains in broth medium containing FAC; design: key: Red, Green, Black or Purple mean strong colour; Red, Green, Black or Purple mean strong colour; Red, Green, Black or Purple mean strong colour; Red, Green, Black or Purple mean strong colour; +/− means less colour than strong; Tr means a trace of colour, less than +/−; — means no colour; conditions: 37° C. 18 hours
[2] = test system: 20 different microbial strains; assay: specificity of action on 20 different microbial strains, Columbia agar; conditions: 19 organisms other than E. coli NCTC 10418, FAC
Procedure: (§1) The specificity of action of both DHN-β-D-glucuronide (2) and of catechol-β-D-glucuronide (1), as well as their 6′-methyl esters (4 and 6), was first established using multi-point inoculation of 20 different microbial strains onto Columbia agar plates. The strains chosen represented species commonly encountered in diagnostic microbiology. The substrates were incorporated into the agar at a concentration of 300 mg/L with an iron salt, ferric ammonium citrate, (hereinafter known as FAC) at 500 mg/L. The plates were incubated for 18 h at 37° C. in air.
Of the 20 strains, only the β-D-glucuronidase-positive strain of E. coli, (E. coli NCTC 10418) was able to hydrolyse the substrates. This organism generated diffuse, purple-brown colonies with the catechol substrates and diffuse, maroon colonies with the DHN substrates. Essentially identical results were obtained if other iron salts (e.g. iron(II) gluconate, iron(II) acetate, iron(II) citrate, iron(II) acetylacetonate and iron(III) acetylacetonate) were substituted in place of FAC. The iron compound can be either iron(II) (i.e. ferrous) or iron(III) (i.e. ferric). Both types of compound work equally, and the coloured chelates were still formed when the plates were incubated under anaerobic conditions, which is another useful feature of the present invention. The substrates may also be autoclaved at 116° C. for 20 minutes with no decrease in sensitivity. It will be appreciated that the media and the reagents will all contain at least traces of iron compounds. […] In contrast, supplementing the growth media with compounds of other metals gave either no coloured endpoint or an extremely poor one to visualise. […] Therefore the latter substrates were preferred for more extensive evaluation. […] For convenience, further evaluation of catechol-β-D-glucuronide and DHN-β-D-glucuronide was conducted with the CHA salt forms only (1 and 2b). In the present invention the counter ion of the glucuronide is not considered to be of special significance. For acidic enzyme substrates (including glucuronides), a variety of different counter ions, both inorganic and organic, are well known in the prior art.

[3] = test system: Enterococcus faecium NCTC 7171; assay: multi-point inoculation onto Columbia agar plates; conditions: substrate 300 mg/L, FAC 500 mg/L, 18 h at 37° C. in air
Procedure: as §1

[4] = test system: Klebsiella pneumoniae NCTC 9528; assay: multi-point inoculation onto Columbia agar plates; conditions: substrate 300 mg/L, FAC 500 mg/L, 18 h at 37° C. in air
Procedure: as §1

[5] = test system: Staphylococcus aureus (MRSA) NCTC 11939; assay: multi-point inoculation onto Columbia agar plates; conditions: substrate 300 mg/L, FAC 500 mg/L, 18 h at 37° C. in air
Procedure: as §1

[6] = test system: Candida albicans ATCC 90028; assay: multi-point inoculation onto Columbia agar plates; conditions: substrate 300 mg/L, FAC 500 mg/L, 18 h at 37° C. in air
Procedure: as §1

[7] = test system: Staphylococcus aureus NCTC 6571; assay: multi-point inoculation onto Columbia agar plates; conditions: substrate 300 mg/L, FAC 500 mg/L, 18 h at 37° C. in air
Procedure: as §1

[8] = test system: Streptococcus pyogenes NCTC 8306; assay: multi-point inoculation onto Columbia agar plates; conditions: substrate 300 mg/L, FAC 500 mg/L, 18 h at 37° C. in air
Procedure: as §1

[9] = test system: Salmonella typhimurium NCTC 74; assay: multi-point inoculation onto Columbia agar plates; conditions: substrate 300 mg/L, FAC 500 mg/L, 18 h at 37° C. in air
Procedure: as §1

[10] = test system: Serratia marcescens NCTC 10211; assay: multi-point inoculation onto Columbia agar plates; conditions: substrate 300 mg/L, FAC 500 mg/L, 18 h at 37° C. in air
Procedure: as §1

[11] = test system: Bacillus subtilis NCTC 9372; assay: multi-point inoculation onto Columbia agar plates; conditions: substrate 300 mg/L, FAC 500 mg/L, 18 h at 37° C. in air
Procedure: as §1

[12] = test system: Burkholderia cepacia NCTC 10931; assay: multi-point inoculation onto Columbia agar plates; conditions: substrate 300 mg/L, FAC 500 mg/L, 18 h at 37° C. in air
Procedure: as §1

[13] = test system: Escherichia coli NCTC 10418; assay: multi-point inoculation onto Columbia agar plates; conditions: substrate 300 mg/L, FAC 500 mg/L, 18 h at 37° C. in air
Procedure: as §1

[14] = test system: Enterobacter cloacae NCTC 11936; assay: multi-point inoculation onto Columbia agar plates; conditions: substrate 300 mg/L, FAC 500 mg/L, 18 h at 37° C. in air
Procedure: as §1

[15] = test system: Providencia rettgeri NCTC 7475; assay: multi-point inoculation onto Columbia agar plates; conditions: substrate 300 mg/L, FAC 500 mg/L, 18 h at 37° C. in air
Procedure: as §1

[16] = test system: Acinetobacter baumanaii NCTC 19606; assay: multi-point inoculation onto Columbia agar plates; conditions: substrate 300 mg/L, FAC 500 mg/L, 18 h at 37° C. in air
Procedure: as §1

[17] = test system: Pseudomonas aeruginosa NCTC 10662; assay: multi-point inoculation onto Columbia agar plates; conditions: substrate 300 mg/L, FAC 500 mg/L, 18 h at 37° C. in air
Procedure: as §1

[18] = test system: Candida glabrata NCPF 3943; assay: multi-point inoculation onto Columbia agar plates; conditions: substrate 300 mg/L, FAC 500 mg/L, 18 h at 37° C. in air
Procedure: as §1

[19] = test system: Listeria monocytogenes NCTC 11994; assay: multi-point inoculation onto Columbia agar plates; conditions: substrate 300 mg/L, FAC 500 mg/L, 18 h at 37° C. in air
Procedure: as §1

[20] = test system: Enterococcus faecalis NCTC 775; assay: multi-point inoculation onto Columbia agar plates; conditions: substrate 300 mg/L, FAC 500 mg/L, 18 h at 37° C. in air
Procedure: as §1

[21] = test system: Yersinia enterocolitica NCTC 11176; assay: multi-point inoculation onto Columbia agar plates; conditions: substrate 300 mg/L, FAC 500 mg/L, 18 h at 37° C. in air
Procedure: as §1

[22] = test system: Staphylococcus epidermidis NCTC 11047; assay: multi-point inoculation onto Columbia agar plates; conditions: substrate 300 mg/L, FAC 500 mg/L, 18 h at 37° C. in air
Procedure: as §1

E. faecalis NCTC 775 [23] = assay: screen of strains in broth medium containing FAC; design: key: Red, Green, Black or Purple mean strong colour; Red, Green, Black or Purple mean strong colour; Red, Green, Black or Purple mean strong colour; Red, Green, Black or Purple mean strong colour; +/− means less colour than strong; Tr means a trace of colour, less than +/−; — means no colour; conditions: 37° C. 18 hours
[24] = E. cloacae 260329R, 37° C. 18 hours
[25] = E. cloacae NCTC 11936, 37° C. 18 hours

O=C(O)[C@H]1O[C@@H](Oc2c[nH]c3ccc(Br)c(Cl)c23)[C@H](O)[C@@H](O)[C@@H]1O [X-β-D-glucuronide CHA salt, 5-bromo-4-chloro-3-indolyl β-D-glucuronide]
colour (E. cloacae; [24]): —
colour (E. cloacae; [25]): —
colour (E. faecalis NCTC 775 [1]): —

O=C(O)C1OC(Oc2cc3ccccc3cc2O)C(O)C(O)C1O [Compound 2b, DHN-β-D-Glucuronide CHA Salt]
colour (E. faecium NCTC 7171): —
result with the other 19 organisms [2]: uniformly negative
colour [3]: −
colour [4]: −
colour [5]: −
colour [6]: −
colour [7]: −
colour [8]: −
colour [9]: −
colour [10]: −
colour [11]: −
colour [12]: −
colour [13]: ++
colour [14]: −
colour [15]: −
colour [16]: −
colour [17]: −
colour [18]: −
colour [19]: −
colour [20]: −
colour [21]: −
colour [22]: −
colour (E. faecalis NCTC 775 [23]): —

O=C(O)[C@H]1O[C@@H](Oc2c[nH]c3cc(Cl)ccc23)[C@H](O)[C@@H](O)[C@@H]1O [Rose-β-D-glucuronide CHA salt, 6-chloro-3-indolyl β-D-glucuronide]
colour (E. cloacae; [24]): —
colour (E. cloacae; [25]): —
colour (E. faecalis NCTC 775 [1]): —

O=C(O)C1OC(Oc2ccccc2O)C(O)C(O)C1O [Compound 1, Catechol β-D-Glucuronide CHA Salt]
colour (E. faecium NCTC 7171): —
result with the other 19 organisms [2]: uniformly negative
colour [3]: −
colour [4]: −
colour [5]: −
colour [6]: −
colour [7]: −
colour [8]: −
colour [9]: −
colour [10]: −
colour [11]: −
colour [12]: −
colour [13]: ++
colour [14]: −
colour [15]: −
colour [16]: −
colour [17]: −
colour [18]: −
colour [19]: −
colour [20]: −
colour [21]: −
colour [22]: −
colour (E. faecalis NCTC 775 [23]): —
